Results published in the supplement of paper PMC13380429.

Columns and labels:
Details in all cases: 72 h
Vero E6 [1] = assay: drug sensitivity score (DSS) for viability; higher = more toxic; extreme values may be limits of the assay
HepG2 [2] = assay: as above
Calu-3 [3] = assay: as above
Caco-2 [4] = assay: as above
U2OS [5] = assay: as above
Vero E6 [6] = assay: cell viability relative to DMSO; higher = less toxic
HepG2 [7] = assay: as above
Calu-3 [8] = assay: as above
Caco-2 [9] = assay: as above
U2OS [10] = assay: as above
Vero E6 [11] = assay: relative viability EC50 (midpoint between 100% and the lowest measured viability); higher = less toxic
HepG2 [12] = assay: as above
Calu-3 [13] = assay: as above
Caco-2 [14] = assay: as above
U2OS [15] = assay: as above

Row | Structure (SMILES) | drug sensitivity score (Vero E6 [1]) | drug sensitivity score (HepG2 [2]) | drug sensitivity score (Calu-3 [3]) | drug sensitivity score (Caco-2 [4]) | drug sensitivity score (U2OS [5]) | cell viability (Vero E6 [6]; 1 nM) [%] | cell viability (Vero E6 [6]; 10 nM) [%] | cell viability (Vero E6 [6]; 100 nM) [%] | cell viability (Vero E6 [6]; 1000 nM) [%] | cell viability (Vero E6 [6]; 10000 nM) [%] | cell viability (HepG2 [7]; 1 nM) [%] | cell viability (HepG2 [7]; 10 nM) [%] | cell viability (HepG2 [7]; 100 nM) [%] | cell viability (HepG2 [7]; 1000 nM) [%] | cell viability (HepG2 [7]; 10000 nM) [%] | cell viability (Calu-3 [8]; 1 nM) [%] | cell viability (Calu-3 [8]; 10 nM) [%] | cell viability (Calu-3 [8]; 100 nM) [%] | cell viability (Calu-3 [8]; 1000 nM) [%] | cell viability (Calu-3 [8]; 10000 nM) [%] | cell viability (Caco-2 [9]; 1 nM) [%] | cell viability (Caco-2 [9]; 10 nM) [%] | cell viability (Caco-2 [9]; 100 nM) [%] | cell viability (Caco-2 [9]; 1000 nM) [%] | cell viability (Caco-2 [9]; 10000 nM) [%] | cell viability (U2OS [10]; 1 nM) [%] | cell viability (U2OS [10]; 10 nM) [%] | cell viability (U2OS [10]; 100 nM) [%] | cell viability (U2OS [10]; 1000 nM) [%] | cell viability (U2OS [10]; 10000 nM) [%] | relative viability EC50 (Vero E6 [11]) [µM] | relative viability EC50 (HepG2 [12]) [µM] | relative viability EC50 (Calu-3 [13]) [µM] | relative viability EC50 (Caco-2 [14]) [µM] | relative viability EC50 (U2OS [15]) [µM]
1 | CCCC(O)C(CC)CO (stereo not given) [2-ethyl-1,3-hexanediol] | 0.7 | 0 | 0 | 0 | 0 | 95.5 | 102 | 101 | 104 | 75.5 | 78.7 | 105 | 98.8 | 81.1 | 101 | 105 | 101 | 102 | 94.6 | 103 | 106 | 88.9 | 101 | 93.9 | 93.3 | 102 | 99.1 | 95.9 | 97.8 | 102 | > 10 | > 10 | > 10 | > 10 | > 10
2 | COc1ccccc1N1CCN(CCn2c(=O)[nH]c3c([nH]c4ccccc43)c2=O)CC1 [3-MPPI] | 0 | 0 | 0 | 0 | 0 | 104 | 104 | 102 | 99.4 | 103 | 102 | 111 | 106 | 102 | 92.2 | 99.6 | 105 | 104 | 98.8 | 106 | 96 | 93.8 | 99.4 | 96.1 | 103 | 103 | 98 | 102 | 99.4 | 101 | > 10 | > 10 | > 10 | > 10 | > 10
3 | COc1ccc(-c2coc3cc(O)cc(O)c3c2=O)cc1 [4-methylgenistein] | 0 | 0 | 0 | 0 | 0 | 94 | 95 | 101 | 88.5 | 102 | 106 | 109 | 102 | 92.6 | 95.2 | 113 | 99 | 101 | 106 | 91 | 98.7 | 98.1 | 105 | 104 | 96 | 99.3 | 94.1 | 99.3 | 98.8 | 97.1 | > 10 | > 10 | > 10 | > 10 | > 10
4 | C[C@]12CCC(=O)C=C1CC[C@@H]1[C@@H]2CC[C@@]2(C)[C@H]1CC[C@]2(C)O [17-alpha-Methyltestosterone] | 0 | 0 | 0 | 0 | 0 | 92.6 | 97.4 | 94.4 | 91.9 | 105 | 103 | 90.8 | 91.5 | 96.8 | 101 | 108 | 97.1 | 114 | 106 | 115 | 99.2 | 89.5 | 90.4 | 98.8 | 102 | 97.6 | 96.1 | 104 | 101 | 97.1 | > 10 | > 10 | > 10 | > 10 | > 10
5 | Oc1ccc(C2(c3ccccc3F)CCC(F)(F)CC2)cc1 [AC-186] | 0 | 0 | 0 | 0 | 0 | 97.4 | 96.5 | 94.2 | 92.2 | 109 | 95.8 | 94.7 | 100 | 96.3 | 104 | 91 | 98.4 | 89.3 | 105 | 104 | 104 | 95 | 98.2 | 96.2 | 102 | 95.1 | 96.3 | 95.5 | 99.3 | 99 | > 10 | > 10 | > 10 | > 10 | > 10
6 | CC(C)OC(=O)N1CCC(Oc2ncnc3c2cnn3-c2ccc(S(C)(=O)=O)cc2F)CC1 [APD668] | 0 | 1 | 0 | 0 | 0 | 90.5 | 95.2 | 100 | 95.7 | 105 | 103 | 102 | 96.2 | 98.6 | 77.1 | 106 | 107 | 102 | 108 | 92.7 | 106 | 98.4 | 93.6 | 96.1 | 89.1 | 99.4 | 101 | 97.4 | 106 | 97.5 | > 10 | > 10 | > 10 | > 10 | > 10
